Data taken from US10294202B2, “Pyrrolidinones as herbicides” (FMC Corporation, priority 2013, dated 2019).

Legend:
[1] = test system: blackgrass; assay: Test C pre-/postemergence herbicide test; type: in vivo, Alopecurus myosuroides; conditions: for Blackgrass plant response rating: scale 0 to 100, 0 is no effect and 100 is complete control
Summary of the method: (§1)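 Pre-emergence: seeds sown in loam/sand blend and treated with compound in surfactant-containing solvent. Post-emergence: plants at 2–18 cm (1- to 4-leaf stage) in peat-based medium sprayed with the same formulation. Visual rating versus controls after 13–15 days in greenhouse, scale 0 (no effect) to 100 (complete control).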

[2] = test system: johnsongrass; assay: Test C pre-/postemergence herbicide test; type: in vivo, Sorghum halepense
Excerpt: (§2) Seeds of plant species selected from blackgrass (Alopecurus myosuroides), ryegrass, Italian (Italian ryegrass, Lolium multiflorum), wheat (winter wheat, Triticum aestivum), galium (catchweed bedstraw, Galium aparine), corn (Zea mays), crabgrass, large (large crabgrass, Digitaria sanguinalis), foxtail, giant (giant foxtail, Setaria faberii), johnsongrass (Sorghum halepense), lambsquarters (Chenopodium album), morningglory (Ipomoea coccinea), nutsedge, yellow (yellow nutsedge, Cyperus esculentus), pigweed (Amaranthus retroflexus), ragweed (common ragweed, Ambrosia elatior), soybean (Glycine max), barnyardgrass (Echinochloa crus-galli), oilseed rape (Brassica napus), waterhemp (common waterhemp, Amaranthus rudis), kochia (Kochia scoparia), oat, wild (wild oat, Avena fatua), surinam grass (Brachiaria decumbens), foxtail, green (green foxtail, Setaria viridis), goosegrass (Eleusine indica), bromegrass, downy (downy bromegrass, Bromus tectorum), nightshade (eastern black nightshade, Solanum ptycanthum), cocklebur (common cocklebur, Xanthium strumarium), cupgrass, woolly (woolly cupgrass, Eriochloa villosa), bermudagrass (Cynodon dactylon), sunflower, (common oilseed sunflower, Helianthus annuus), Russian thistle (Salsola kali) and velvetleaf (Abutilon theophrasti) were planted into a blend of loam soil and sand and treated preemergence with test chemicals formulated in a non-phytotoxic solvent mixture which included a surfactant. At the same time, plants selected from these crop and weed species and also barley (winter barley, Hordeum vulgare), […]), chickweed (common chickweed, Stellaria media), deadnettle (henbit deadnettle, Lamium amplexicaule), and canarygrass (littleseed canarygrass, Phalaris minor) were planted in pots containing Redi-Earth® planting medium (Scotts Company, 14111 Scottslawn Road, Marysville, Ohio 43041) comprising spaghnum peat moss, vermiculite, wetting agent and starter nutrients and treated with postemergence applications of test chemicals formulated in the same manner. Plants ranged in height from 2 to 18 cm (1- to 4-leaf stage) for postemergence treatments. Treated plants and controls were maintained in a greenhouse for 13 to 15 days, after which time all species were compared to controls and visually evaluated. Plant response ratings, summarized in Table C, are based on a scale of 0 to 100 where 0 is no effect and 100 is complete control. A dash (-) response means no test result.

[3] = test system: velvetleaf; assay: Test C pre-/postemergence herbicide test; type: in vivo, Abutilon theophrasti
Excerpt: as §2

[4] = test system: giant foxtail; assay: Test A pre-/postemergence herbicide test; type: in vivo, Setaria faberii; conditions: for Plant response rating, Foxtail, Giant: 0 to 100 scale
Summary of the method: (§3)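 Seeds in loam–sand blend received preemergence directed soil spray; separately, plants 2–10 cm at one- to two-leaf stage received postemergence spray, both with test chemicals in non-phytotoxic solvent with surfactant. After ~10 days in greenhouse, injury rated visually against untreated controls, 0 (no effect) to 100 (complete control).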

[5] = test system: barnyardgrass; assay: Test A pre-/postemergence herbicide test; type: in vivo, Echinochloa crus-galli; conditions: for Plant response rating, Barnyardgrass: 0 to 100 scale
Summary of the method: as §3

[6] = test system: corn; assay: Test A pre-/postemergence herbicide test; type: in vivo, Zea mays; conditions: for Plant response rating, Corn: 0 to 100 scale
Summary of the method: as §3

[7] = test system: pigweed; assay: Test A pre-/postemergence herbicide test; type: in vivo, Amaranthus retroflexus; conditions: for Plant response rating, Pigweed: 0 to 100 scale
Summary of the method: as §3

[8] = test system: nutsedge, yellow; assay: Test C pre-/postemergence herbicide test; type: in vivo, Cyperus esculentus
Summary of the method: as §1

[9] = test system: foxtail, giant; assay: Test C pre-/postemergence herbicide test; type: in vivo, Setaria faberii
Summary of the method: as §1

[10] = test system: oilseed rape; assay: Test C pre-/postemergence herbicide test; type: in vivo, Brassica napus
Excerpt: as §2

[11] = Preemergence, 62 g ai/ha, scale 0 to 100
[12] = Preemergence, 125 g ai/ha, scale 0 to 100 (0 no effect, 100 complete control)
[13] = Preemergence, 16 g ai/ha, scale 0 to 100
[14] = Preemergence, 31 g ai/ha, scale 0 to 100, 0 is no effect and 100 is complete control
[15] = Preemergence, 62 g ai/ha, scale 0 to 100 (0 no effect, 100 complete control)
[16] = 125 g ai/ha, visual rating, 0 no effect, 100 complete control, approximately 10 days, preemergence
[17] = Postemergence, 125 g ai/ha, 0 is no effect, 100 is complete control
[18] = preemergence, 500 g ai/ha, 0 is no effect and 100 is complete control
[19] = Postemergence, 31 g ai/ha, scale 0 to 100 (0 no effect, 100 complete control)
[20] = Postemergence, 62 g ai/ha, scale 0 (no effect) to 100 (complete control)
[21] = Postemergence, 125 g ai/ha, scale 0 to 100 (0 no effect, 100 complete control)
[22] = Postemergence, 250 g ai/ha, scale 0 to 100 (0 no effect, 100 complete control)

## O=C1NCC(c2cccc(C(F)(F)F)c2)C1C(=O)Nc1ccccc1Cl (racemic) [Compound 189]
[1]; Preemergence, 31 g ai/ha
  Blackgrass plant response rating: 10
[1]; [11]
  Plant response rating, Blackgrass: 50
[1]; [12]
  Plant response rating, Blackgrass: 55
[1]; [13]
  Plant response rating, Blackgrass: 0
[2]; [14]
  Johnsongrass plant response rating: 0
[2]; [15]
  Johnsongrass plant response rating: 0
[2]; [12]
  Plant response rating, Johnsongrass: 15
[2]; [13]
  Plant response rating, Johnsongrass: 0
[3]; [14]
  Velvetleaf plant response rating: 0
[3]; [15]
  Velvetleaf plant response rating: 0
[3]; [12]
  Plant response rating, Velvetleaf: 0
[3]; [13]
  Plant response rating, Velvetleaf: 0
[4]; [16]
  Plant response rating, Foxtail, Giant: 90
[4]; [17]
  Plant response rating, Foxtail, Giant: 70
[4]; Postemergence, 500 g ai/ha
  Foxtail, Giant plant response rating (0 to 100 scale, 0 is no effect, 100 is complete control): 90
[4]; [18]
  Plant response rating, Foxtail, Giant: 90
[5]; [16]
  Plant response rating, Barnyardgrass: 80
[5]; [17]
  Plant response rating, Barnyardgrass: 90
[5]; Postemergence, 500 g ai/ha
  Barnyardgrass plant response rating (0 to 100 scale, 0 is no effect, 100 is complete control): 90
[5]; [18]
  Plant response rating, Barnyardgrass: 90
[6]; [16]
  Plant response rating, Corn: 0
[6]; [17]
  Plant response rating, Corn: 0
[6]; Postemergence, 500 g ai/ha
  Corn plant response rating (0 to 100 scale, 0 is no effect, 100 is complete control): 60
[6]; [18]
  Plant response rating, Corn: 0
[7]; [16]
  Plant response rating, Pigweed: 0
[7]; [17]
  Plant response rating, Pigweed: 0
[7]; Postemergence, 500 g ai/ha
  Pigweed plant response rating (0 to 100 scale, 0 is no effect, 100 is complete control): 0
[7]; [18]
  Plant response rating, Pigweed: 0
[8]; [14]
  Nutsedge, Yellow plant response rating: 0
[8]; [15]
  Nutsedge, Yellow plant response rating: 0
[8]; [12]
  Plant response rating, Nutsedge, Yellow: 0
[8]; [13]
  Plant response rating, Nutsedge, Yellow: 0
[9]; [14]
  Foxtail, Giant plant response rating: 80
[9]; [15]
  Foxtail, Giant plant response rating: 90
[9]; [12]
  Plant response rating, Foxtail, Giant: 95
[9]; [13]
  Plant response rating, Foxtail, Giant: 85
[10]; [14]
  Oilseed Rape plant response rating: 0
[10]; [15]
  Oilseed Rape plant response rating: 0
[10]; [12]
  Plant response rating, Oilseed Rape: 20
[10]; [13]
  Plant response rating, Oilseed Rape: 0

## O=C1NCC(c2cccc(C(F)(F)F)c2)C1C(=O)Nc1ccc(F)cc1F (racemic) [Compound 207]
[1]; [19]
  Plant response rating, Blackgrass: 0
[1]; [20]
  Plant response rating, Blackgrass: 0
[1]; [21]
  Plant response rating, Blackgrass: 0
[1]; [22]
  Plant response rating, Blackgrass: 0
[1]; Preemergence, 31 g ai/ha
  Blackgrass plant response rating: 0
[1]; [11]
  Plant response rating, Blackgrass: 80
[1]; [12]
  Plant response rating, Blackgrass: 85
[1]; Preemergence, 250 g ai/ha
  Plant response rating (scale of 0 to 100), Blackgrass: 90
[2]; [19]
  Plant response rating, Johnsongrass: 0
[2]; [20]
  Plant response rating, Johnsongrass: 0
[2]; [21]
  Plant response rating, Johnsongrass: 0
[2]; [22]
  Plant response rating, Johnsongrass: 0
[2]; [14]
  Johnsongrass plant response rating: 0
[2]; [15]
  Johnsongrass plant response rating: 0
[2]; [12]
  Plant response rating, Johnsongrass: 30
[2]; Preemergence, 250 g ai/ha
  Plant response rating (scale of 0 to 100), Johnsongrass: 60
[3]; [19]
  Plant response rating, Velvetleaf: 0
[3]; [20]
  Plant response rating, Velvetleaf: 0
[3]; [21]
  Plant response rating, Velvetleaf: 0
[3]; [22]
  Plant response rating, Velvetleaf: 0
[3]; [14]
  Velvetleaf plant response rating: 0
[3]; [15]
  Velvetleaf plant response rating: 0
[3]; [12]
  Plant response rating, Velvetleaf: 0
[3]; Preemergence, 250 g ai/ha
  Plant response rating (scale of 0 to 100), Velvetleaf: 0
[4]; [16]
  Plant response rating, Foxtail, Giant: 90
[4]; [17]
  Plant response rating, Foxtail, Giant: 90
[4]; Postemergence, 500 g ai/ha
  Foxtail, Giant plant response rating (0 to 100 scale, 0 is no effect, 100 is complete control): 90
[4]; [18]
  Plant response rating, Foxtail, Giant: 90
[5]; [16]
  Plant response rating, Barnyardgrass: 90
[5]; [17]
  Plant response rating, Barnyardgrass: 80
[5]; Postemergence, 500 g ai/ha
  Barnyardgrass plant response rating (0 to 100 scale, 0 is no effect, 100 is complete control): 90
[5]; [18]
  Plant response rating, Barnyardgrass: 90
[6]; [17]
  Plant response rating, Corn: 50
[6]; Postemergence, 500 g ai/ha
  Corn plant response rating (0 to 100 scale, 0 is no effect, 100 is complete control): 70
[7]; [16]
  Plant response rating, Pigweed: 0
[7]; [17]
  Plant response rating, Pigweed: 0
[7]; Postemergence, 500 g ai/ha
  Pigweed plant response rating (0 to 100 scale, 0 is no effect, 100 is complete control): 0
[7]; [18]
  Plant response rating, Pigweed: 20
[8]; [19]
  Plant response rating, Nutsedge, Yellow: 10
[8]; [20]
  Plant response rating, Nutsedge, Yellow: 0
[8]; [21]
  Plant response rating, Nutsedge, Yellow: 0
[8]; [22]
  Plant response rating, Nutsedge, Yellow: 0
[8]; [14]
  Nutsedge, Yellow plant response rating: 0
[8]; [15]
  Nutsedge, Yellow plant response rating: 0
[8]; [12]
  Plant response rating, Nutsedge, Yellow: 0
[8]; Preemergence, 250 g ai/ha
  Plant response rating (scale of 0 to 100), Nutsedge, Yellow: 0
[9]; [19]
  Plant response rating, Foxtail, Giant: 20
[9]; [20]
  Plant response rating, Foxtail, Giant: 0
[9]; [21]
  Plant response rating, Foxtail, Giant: 65
[9]; [22]
  Plant response rating, Foxtail, Giant: 75
[9]; [14]
  Foxtail, Giant plant response rating: 85
[9]; [15]
  Foxtail, Giant plant response rating: 90
[9]; [12]
  Plant response rating, Foxtail, Giant: 90
[9]; Preemergence, 250 g ai/ha
  Plant response rating (scale of 0 to 100), Foxtail, Giant: 98
[10]; [19]
  Plant response rating, Oilseed Rape: 0
[10]; [20]
  Plant response rating, Oilseed Rape: 0
[10]; [21]
  Plant response rating, Oilseed Rape: 10
[10]; [22]
  Plant response rating, Oilseed Rape: 30
[10]; [14]
  Oilseed Rape plant response rating: 0
[10]; [15]
  Oilseed Rape plant response rating: 0
[10]; [12]
  Plant response rating, Oilseed Rape: 0
[10]; Preemergence, 250 g ai/ha
  Plant response rating (scale of 0 to 100), Oilseed Rape: 80
